Assay results taken from US20200384134A1, “IMAGING METHOD OF AMPA RECEPTORS IN BRAIN OF PRIMATE ORGANISM, PROGRAM, DIAGNOSTIC AGENT, COMPANION DIAGNOSTIC AGENT, DRUG, SCREENING METHOD, INPUT TERMINAL, SERVER AND SYSTEM” (Public University Corporation Yokohama City University, priority 2017, published 2020).

Columns and labels:
AMPA receptors = experiment: AMPA receptor binding test (electrophysiological verification) in vitro; format: cell-based; details: FIG. 5
[1] = system: WKY rat which was the depression model rat; experiment: Forced swimming test using rat; format: in vivo; details: FIG. 10
Method: In a forced swimming test, AMPA receptor-binding compounds K-2 and K-4 were dissolved in 100% DMSO (Nacalai Tesque, Inc. Japan) so as to have a concentration of 2.1 mM, were diluted with saline immediately before being administered (15% DMSO, 320 μM) and were intravenously administered to the rat with an administered amount of 5 μl/weight (g) such that the administered amount fell within a range of 1 mg/kg to 1.5 mg/kg.
In all animal experiments, the deliberation and the approval of the animal experiment committee in Yokohama City University were received (approval number: F-A-15-051). As rats, adult male Wistar rats which were 6 to 10 weeks old and Wistar Kyoto rats (WKY rats) which were depression model rats (Charles River, Japan) were used. In order to acquire a route for the repeated administration of K-2, a jugular vein cannula indwelling surgery was performed a week before the experiment. The rat was made to fall sleep with isoflurane (DS Pharma Animal Health, Japan), and thereafter, while anesthesia was maintained at an isoflurane concentration of 1.5% (air 2 L/minute), the jugular vein cannula indwelling surgery was performed. The skin of a neck was incised about 3 cm such that subcutaneous fat was opened, and thus a jugular vein was exposed. […]

[2] = system: AMPA receptors in the brain; experiment: PET imaging in humans (healthy persons); format: in vivo, human; details: about 370 MBq i.v.
Method: PET imaging was performed on two human subjects. […] Absorption correction CT imaging was performed for about one minute, and then [^11C] K-2 of about 370 MBq was administered, as a PET drug, intravenously over one minute. Thereafter, imaging was performed for 120 minutes. For the imaging, a PET/CT device “Aquiduo” (Toshiba Medical Systems Corporation) was used. In list data which was collected, dynamic images were reconstructed by an OS-EM method.
(§1) The reconstructed image was analyzed with the PMOD image analysis software (PMOD technologies) by integrating VOIs including a plurality of regions of frontal lobe, dentate cortex, hippocampus, amygdala, putamen, cerebellum, bridge and the like with one formed on a template MRI image. […]
as §1, with “image. As a calculation value used in quantitative determination, % SUV (% of standardized uptake value) was used.” for “image.”

binding affinity to the AMPA receptors (AMPA receptors) | nonspecific accumulation caused by PET drug not bound to the AMPA receptors in the brain ([2]; between 30 and 60 minutes after administration, two human subjects) | uptake into the brain ([2]; healthy men, average 50 to 120 minutes, FIG. 12) | SMILES | immobile time, K-4 compared with K-2 ([1]; chronic administration, 1 mg/kg) | immobile time, chronic administration experiment ([1]; i.v. for 7 days, 1 mg/kg to 1.5 mg/kg, compared with 15% DMSO)
indicated binding affinity | – | – | CN(C)C(=O)COc1c(F)cc(SCCN(C)S(=O)(=O)c2ccccc2)cc1F [Compound K-4, {4-[2-(benzenesulfonyl-methyl-amino)-ethylsulfanil]-2,6-difluoro-phenoxy}-N,N-dimethyl-acetamide] | significantly lowers the immobile time instead of K-2 | significantly lowered
– | remarkably washed out | high | [11CH3]N(CCSc1cc(F)c(OCC(N)=O)c(F)c1)S(=O)(=O)c1ccccc1 [[^11C] K-2, [4-[2-(benzenesulfonyl-[^11C]methyl-amino)-ethylsulfanyl]-2,6-difluorophenoxy]-acetamide] | – | –
